Data as given in patent US12281363B2, “Methods for detecting antiviral-drug resistant virus” (Secretary of State for Health and Social Care, priority 2018, dated 2025).
Like-named read-outs stand apart in the source and are kept apart here.

Tested on: HSV-1
Experiment: Plaque reduction assay, HSV-1 clinical isolates on Vero cells
Format: cell-based
Settings: Human alphaherpesvirus 1, Vero
Excerpt: Viral isolates were used to infect a sub-confluent monolayer of Vero cells at a concentration of 75 or 50 plaque forming units (PFU) per well for HSV-1 and HSV-2, respectively. […] CMC medium typically used to create a semisolid interface and prevents indiscrimate viral spreading. Other materials (e.g. agar) may also be used to create this interface.
Cells were fixed with 10% formalin and stained with crystal violet before enumeration of the plaques (microscopic observation or use of fluorescent antibodies for detection is also suitable). The data obtained from these experiments were then expressed as percent inhibition of viral infectivity relative to the no drug control.
Definitions of phenotypic drug susceptibility classification as sensitive or resistant were as follows: ACV, <3 μM or >40 μM; PCV, <10 μM or >40 μM; CDV, <24 μM or >30 μM; FOS, <250 μM or >400 μM; and ACV, <6.5 μM or >40 μM; PCV, <38 μM or >40 μM; FOS, <250 μM or >400 μM for HSV-1 and HSV-2, respectively. Any IC50 values falling in between these sensitive and resistant cut-offs were reported as intermediate resistance.
The phenotype (i.e. reactivity to a drug) of the virus was characterised by the plaque reduction assay as described above.

`Nc1ccn(C[C@@H](CO)OCP(=O)(O)O)c(=O)n1` [Cidofovir, cidofovir] was tested, and the IC50 (72 h, isolate HPG053, HSV-1 pol L802R + A834S (2405T>G, 2500G>T), also TK R176W, read-out: Drug susceptibility (IC50 value)) was 7.72 µM, the IC50 (isolate HPG002, HSV-1 pol E992K (2974G>A), also TK insert (G) nt 430-436, pol A1169T, read-out: Drug susceptibility (IC50 value)) was 6.09 µM and the IC50 (isolate HPG002, HSV-1 pol E992K (2974G>A), also TK insert (G) nt 430-436, pol A1169T, read-out: Drug susceptibility Cidofovir (CDV)) was < 24 µM. The IC50 (isolate HPG003, HSV-1 TK Y172S (515A>C), read-out: Drug susceptibility (IC50 value)) was < 1.56 µM, the IC50 (isolate HPG003, HSV-1 TK Y172S (515A>C), read-out: Drug susceptibility Cidofovir (CDV)) was < 24 µM and the IC50 (isolate HPG005, HSV-1 TK A37V (110C>T), read-out: Drug susceptibility (IC50 value)) was 2.21 µM. For the same molecule, the IC50 (isolate HPG005, HSV-1 TK A37V (110C>T), read-out: Drug susceptibility Cidofovir (CDV)) was < 24 µM, the IC50 (isolate HPG008, HSV-1 TK V204G (611T>G), read-out: Drug susceptibility (IC50 value)) was 3.56 µM and the IC50 (isolate HPG008, HSV-1 TK V204G (611T>G), read-out: Drug susceptibility Cidofovir (CDV)) was < 24 µM. The IC50 (isolate HPG009, HSV-1 pol E992K (2974G>A), also pol A1169T, read-out: Drug susceptibility (IC50 value)) was 9.44 µM, the IC50 (isolate HPG009, HSV-1 pol E992K (2974G>A), also pol A1169T, read-out: Drug susceptibility Cidofovir (CDV)) was < 24 µM and the IC50 (isolate HPG010, HSV-1 TK Q125* (373C>T), read-out: Drug susceptibility (IC50 value)) was < 1.56 µM. The IC50 (isolate HPG010, HSV-1 TK Q125* (373C>T), read-out: Drug susceptibility Cidofovir (CDV)) was < 24 µM, the IC50 (isolate HPG011, HSV-1 TK Q125* (373C>T), read-out: Drug susceptibility (IC50 value)) was < 1.56 µM and the IC50 (isolate HPG011, HSV-1 TK Q125* (373C>T), read-out: Drug susceptibility Cidofovir (CDV)) was < 24 µM. The IC50 (isolate HPG013, HSV-1 TK M121I (363G>A), read-out: Drug susceptibility (IC50 value)) was 3.11 µM, the IC50 (isolate HPG013, HSV-1 TK M121I (363G>A), read-out: Drug susceptibility Cidofovir (CDV)) was < 24 µM and the IC50 (isolate HPG013, HSV-1 pol D83A (248A>C), also TK M121I, pol A1169T, read-out: Drug susceptibility (IC50 value)) was 3.11 µM. The IC50 (isolate HPG013, HSV-1 pol D83A (248A>C), also TK M121I, pol A1169T, read-out: Drug susceptibility Cidofovir (CDV)) was < 24 µM, the IC50 (isolate HPG014, HSV-1 pol A1115T (3343G>A), read-out: Drug susceptibility (IC50 value)) was 17.2 µM and the IC50 (isolate HPG014, HSV-1 pol A1115T (3343G>A), read-out: Drug susceptibility Cidofovir (CDV)) was < 24 µM. The IC50 (isolate HPG014, HSV-1 pol R993C (2977C>T), read-out: Drug susceptibility (IC50 value)) was 17.2 µM, the IC50 (isolate HPG014, HSV-1 pol R993C (2977C>T), read-out: Drug susceptibility Cidofovir (CDV)) was < 24 µM and the IC50 (isolate HPG014, HSV-1 pol T54A (160A>G), read-out: Drug susceptibility (IC50 value)) was 17.2 µM. The IC50 (isolate HPG014, HSV-1 pol T54A (160A>G), read-out: Drug susceptibility Cidofovir (CDV)) was < 24 µM, the IC50 (isolate HPG015, HSV-1 pol 966stop or F965_I966insF (2892_2893insT to 2895_2896insT), read-out: Drug susceptibility (IC50 value)) was 45.1 µM and the IC50 (isolate HPG015, HSV-1 pol 966stop or F965_I966insF (2892_2893insT to 2895_2896insT), read-out: Drug susceptibility Cidofovir (CDV)) was > 30 µM. For the same molecule, the IC50 (isolate HPG018, HSV-1 TK frameshift (881delC to 885delC), read-out: Drug susceptibility (IC50 value)) was 3.03 µM, the IC50 (isolate HPG018, HSV-1 TK frameshift (881delC to 885delC), read-out: Drug susceptibility Cidofovir (CDV)) was < 24 µM and the IC50 (isolate HPG018, HSV-1 pol P1199T (3595C>A), also TK deletion (C) nt 881-885, pol A1169T, read-out: Drug susceptibility (IC50 value)) was 3.03 µM. For the same molecule, the IC50 (isolate HPG018, HSV-1 pol P1199T (3595C>A), also TK deletion (C) nt 881-885, pol A1169T, read-out: Drug susceptibility Cidofovir (CDV)) was < 24 µM, the IC50 (isolate HPG019, HSV-1 pol K750T (2249A>C), also TK deletion (G) nt 430-436, pol A1169T, read-out: Drug susceptibility (IC50 value)) was 20.4 µM and the IC50 (isolate HPG019, HSV-1 pol K750T (2249A>C), also TK deletion (G) nt 430-436, pol A1169T, read-out: Drug susceptibility Cidofovir (CDV)) was < 24 µM. For the same molecule, the IC50 (isolate HPG020, HSV-1 pol S911N (2732G>A), also pol A1169T, read-out: Drug susceptibility (IC50 value)) was 4.38 µM, the IC50 (isolate HPG020, HSV-1 pol S911N (2732G>A), also pol A1169T, read-out: Drug susceptibility Cidofovir (CDV)) was < 24 µM and the IC50 (isolate HPG021, HSV-1 pol R681Q (2042G>A), also TK deletion (G) nt 430-436, read-out: Drug susceptibility (IC50 value)) was < 1.56 µM. For the same molecule, the IC50 (isolate HPG021, HSV-1 pol R681Q (2042G>A), also TK deletion (G) nt 430-436, read-out: Drug susceptibility Cidofovir (CDV)) was < 24 µM, the IC50 (isolate HPG021, HSV-1 pol T839A (2515A>G), also TK deletion (G) nt 430-436, read-out: Drug susceptibility (IC50 value)) was < 1.56 µM and the IC50 (isolate HPG021, HSV-1 pol T839A (2515A>G), also TK deletion (G) nt 430-436, read-out: Drug susceptibility Cidofovir (CDV)) was < 24 µM. The IC50 (isolate HPG025, HSV-1 pol E850Q (2548G>C), also TK R216C, read-out: Drug susceptibility (IC50 value)) was < 1.56 µM, the IC50 (isolate HPG025, HSV-1 pol E850Q (2548G>C), also TK R216C, read-out: Drug susceptibility Cidofovir (CDV)) was < 24 µM and the IC50 (isolate HPG026, HSV-1 pol E850Q (2548G>C), also TK R216C, pol A1169T, read-out: Drug susceptibility (IC50 value)) was < 1.56 µM. The IC50 (isolate HPG026, HSV-1 pol E850Q (2548G>C), also TK R216C, pol A1169T, read-out: Drug susceptibility Cidofovir (CDV)) was < 24 µM, the IC50 (isolate HPG027, HSV-1 TK V204G (611T>G), also pol S914L, A1169AT, read-out: Drug susceptibility (IC50 value)) was 3.93 µM and the IC50 (isolate HPG027, HSV-1 TK V204G (611T>G), also pol S914L, A1169AT, read-out: Drug susceptibility Cidofovir (CDV)) was < 24 µM. For the same molecule, the IC50 (isolate HPG027, HSV-1 pol S914L (2741C>T), also TK V204G, pol A1169T, read-out: Drug susceptibility (IC50 value)) was 3.93 µM, the IC50 (isolate HPG027, HSV-1 pol S914L (2741C>T), also TK V204G, pol A1169T, read-out: Drug susceptibility Cidofovir (CDV)) was < 24 µM and the IC50 (isolate HPG029, HSV-1 TK Y172S (515A>C), read-out: Drug susceptibility (IC50 value)) was 2.99 µM. For the same molecule, the IC50 (isolate HPG029, HSV-1 TK Y172S (515A>C), read-out: Drug susceptibility Cidofovir (CDV)) was < 24 µM, the IC50 (isolate HPG031, HSV-1 pol E1120A (3359A>C), also a TK resistance mutation (footnote e), read-out: Drug susceptibility (IC50 value)) was 4.8 µM and the IC50 (isolate HPG031, HSV-1 pol E1120A (3359A>C), also a TK resistance mutation (footnote e), read-out: Drug susceptibility Cidofovir (CDV)) was < 24 µM. The IC50 (isolate HPG031, HSV-1 pol G139R (415G>C or 415G>A), also a TK resistance mutation (footnote e), read-out: Drug susceptibility (IC50 value)) was 4.8 µM, the IC50 (isolate HPG031, HSV-1 pol G139R (415G>C or 415G>A), also a TK resistance mutation (footnote e), read-out: Drug susceptibility Cidofovir (CDV)) was < 24 µM and the IC50 (isolate HPG032, HSV-1 TK 183* (437_438insA), read-out: Drug susceptibility (IC50 value)) was 3.61 µM.
